Values of other authors as cited in patent US5559121A, “Rapamycin formulations for oral administration” (American Home Products Corporation, priority 1995, dated 1996).

Legend:
[1] = FASEB 3, 3411 (1989) and others
allograft rejection = conditions: Calne 1989; Morris and Meiser 1989
tumor = conditions: U.S. Pat. No. 4,885,171 (alone); U.S. Pat. No. 4,401,653 (with picibanil)
[2] = test system: experimental allergic encephalomyelitis; conditions: Martel 1977
adjuvant arthritis = conditions: Martel 1977
IgE-like antibodies = conditions: Martel 1977
[3] = test system: insulin dependent diabetes mellitus; conditions: Fifth Int. Conf. Inflamm. Res. Assoc. 121 (1990)
[4] = test system: smooth muscle cell proliferation and intimal thickening; conditions: Morris 1992
thymocyte proliferation = conditions: in vitro
[5] = in vivo

SMILES | immunosuppressive effects [1] | effect on growth of Candida albicans (Candida albicans) | effect on growth of Microsporum gypseum (Microsporum gypseum) | inhibiting rejection in vivo in allograft transplantation (allograft rejection) | antitumor activity (tumor) | effectiveness in experimental allergic encephalomyelitis model [2] | effectiveness in adjuvant arthritis model (adjuvant arthritis) | inhibition of the formation of IgE-like antibodies (IgE-like antibodies) | preventing or treating insulin dependent diabetes mellitus [3] | preventing or treating smooth muscle cell proliferation and intimal thickening following vascular injury [4] | inhibition of thymocyte proliferation (thymocyte proliferation) | immunosuppressive, antifungal and antiinflammatory activity [5]
C=CC[C@@H]1/C=C(\C)C[C@H](C)C[C@H](OC)[C@H]2O[C@@](O)(C(=O)C(=O)N3CCCC[C@H]3C(=O)O[C@H](/C(C)=C/[C@@H]3CC[C@@H](O)[C@H](OC)C3)[C@H](C)[C@@H](O)CC1=O)[C@H](C)C[C@@H]2OC [FK-506] | effective as immunosuppressive agents | – | – | – | – | – | – | – | – | – | – | –
CO[C@H]1C[C@@H]2CC[C@@H](C)[C@@](O)(O2)C(=O)C(=O)N2CCCC[C@H]2C(=O)O[C@H]([C@H](C)C[C@@H]2CC[C@@H](O)[C@H](OC)C2)CC(=O)[C@H](C)/C=C(\C)[C@@H](O)[C@@H](OC)C(=O)[C@H](C)C[C@H](C)/C=C/C=C/C=C/1C [Rapamycin, rapamycin] | immunosuppressive effects | adversely affects the growth | adversely affects the growth | effectiveness of rapamycin in inhibiting rejection in vivo | antitumor activity | effective | effective | effectively inhibited the formation of IgE-like antibodies | useful in preventing or treating | useful in preventing or treating | inhibit thymocyte proliferation in vitro | immunosuppressive, antifungal and antiinflammatory activity in vivo
